# Literature values in EP3568126B1, “[…] COMPOSITION” (Torrent Pharmaceuticals Limited, priority 2017, dated 2018).
substance,measurement,setting,value
"3-[(1R,2R)-3-(dimethylamino)-1-ethyl-2-methylpropyl]phenol [tapentadol]",time of maximum serum concentration,after oral dosing,around 1.25 hours
same,administered tapentadol metabolized (first-pass metabolism),oral administration,about 97%
same,bioavailability,oral administration,32%
same,time after administration at which absorption occurs,oral formulations,at least 45 minutes
